Data as given in patent publication US8940756B2, “Dihydronaphthyridines and related compounds useful as kinase inhibitors for the treatment of proliferative diseases” (Deciphera Pharmaceuticals, Inc., priority 2012, dated 2015).

Columns and labels:
[1] = molecular target: Phospho-KIT (Tyr719) in GIST430 cells (Homo sapiens, UniProt P10721); experiment: GIST430 KIT Western Blot; type: cell-based; settings: 4 hours, read-out: pKIT suppression by western blot analysi GIST430
[2] = molecular target: Phospho-KIT (Tyr719) in GIST48 cells (Homo sapiens, UniProt P10721); experiment: GIST48 KIT Western Blot; type: cell-based; settings: 4 hours, read-out: pKIT suppression by western blot analysi GIST48
Sequence of Phospho-KIT (Tyr719) in GIST48 cells (P10721 whole entry V560D/D820A, form open): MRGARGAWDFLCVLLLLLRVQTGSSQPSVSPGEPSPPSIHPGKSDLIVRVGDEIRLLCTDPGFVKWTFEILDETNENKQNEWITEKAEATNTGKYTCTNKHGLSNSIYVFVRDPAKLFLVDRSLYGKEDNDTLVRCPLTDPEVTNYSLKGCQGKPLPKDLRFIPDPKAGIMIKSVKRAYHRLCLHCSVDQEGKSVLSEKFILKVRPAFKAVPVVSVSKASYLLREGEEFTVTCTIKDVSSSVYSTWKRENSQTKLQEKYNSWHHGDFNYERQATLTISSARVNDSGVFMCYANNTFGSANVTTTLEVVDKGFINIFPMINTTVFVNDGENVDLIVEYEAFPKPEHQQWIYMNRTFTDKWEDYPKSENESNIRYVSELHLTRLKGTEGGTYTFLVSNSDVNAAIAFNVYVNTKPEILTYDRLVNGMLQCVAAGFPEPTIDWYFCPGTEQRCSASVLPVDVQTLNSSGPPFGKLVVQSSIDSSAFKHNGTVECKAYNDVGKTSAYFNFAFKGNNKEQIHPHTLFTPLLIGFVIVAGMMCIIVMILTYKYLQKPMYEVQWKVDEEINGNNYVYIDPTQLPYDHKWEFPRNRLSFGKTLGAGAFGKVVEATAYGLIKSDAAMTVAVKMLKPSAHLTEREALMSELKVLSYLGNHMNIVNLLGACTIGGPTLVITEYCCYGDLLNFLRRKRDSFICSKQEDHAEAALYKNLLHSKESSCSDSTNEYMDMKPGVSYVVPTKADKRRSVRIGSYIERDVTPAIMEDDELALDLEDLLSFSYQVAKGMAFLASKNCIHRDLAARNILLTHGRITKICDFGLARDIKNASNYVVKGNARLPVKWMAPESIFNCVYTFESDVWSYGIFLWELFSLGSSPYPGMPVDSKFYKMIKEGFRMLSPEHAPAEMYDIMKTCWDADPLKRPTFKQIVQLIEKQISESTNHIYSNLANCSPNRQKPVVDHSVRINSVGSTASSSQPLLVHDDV

[3] = tested on: GIST430 cells; experiment: GIST 430 Cell Proliferation Assay; type: cell-based; settings: Homo sapiens, resazurin, 115 hours + 5 hours
Experimental: (§1) GIST48, GIST430, and GIST882 cells were obtained from J. Fletcher (Brigham and Women's Hospital, Boston, Mass.). GIST T1 cells were obtained from B. Rubin (Cleveland Clinic, Cleveland, Ohio) and Professor Takahiro Taguchi (Kochi Medical School, Nankoku, Kochi, Japan). Briefly, GIST48 and GIST 882 cells were grown in RPMI 1640 medium supplemented with 15% characterized fetal bovine serum (Invitrogen, Carlsbad, Calif.), 1 unit/mL penicillin G, 1 μg/ml streptomycin, and 0.29 mg/mL L-glutamine at 37° C., 5% CO2, and 95% humidity. GIST430 cells were grown in Ham's F10 medium supplemented with 15% characterized fetal bovine serum (Invitrogen, Carlsbad, Calif.), 30 mg/L bovine pituitary extract (BD Biosciences, San Jose, Calif.), 0.5% Mito+ serum extender (BD Biosciences, San Jose, Calif.), 1 unit/mL penicillin G, 1 μg/ml streptomycin, and 0.29 mg/mL L-glutamine at 37° C., 5% CO2, 95% humidity. GIST T1 cells were grown in DMEM medium supplemented with 10% characterized fetal bovine serum (Invitrogen, Carlsbad, Calif.), 1 unit/mL penicillin G, 1 ng/ml streptomycin, and 0.29 mg/mL L-glutamine at 37° C., 5% CO2, and 95% humidity.
A serial dilution of test compound was dispensed into a 384-well black clear bottom plate (Corning, Corning, N.Y.). Two thousand five-hundred cells were added per well in 50 μL complete growth medium. Plates were incubated for 115 hours at 37° C., 5% CO2, 95% humidity. At the end of the incubation period 10 μL of a 440 μM solution of resazurin (Sigma, St. Louis, Mo.) in PBS was added to each well and incubated for an additional 5 hours at 37° C., 5% CO2, 95% humidity. Plates were read on a Synergy2 reader (Biotek, Winooski, Vt.) using an excitation of 540 nm and an emission of 600 nm.

[4] = molecular target: T1, c-KIT kinase (Seq ID no. 1) (Homo sapiens, UniProt P10721); experiment: c-KIT Kinase Assay (pyruvate kinase/lactate dehydrogenase coupled); type: biochemical; settings: enzymatic assay, ATP 200 μM; read-out: KIT (wt)
T1 construct: GST (N); TEV cleavage site (N); purchased deCODE Biostructures
T1 sequence (P10721 with tags, fused parts or gaps): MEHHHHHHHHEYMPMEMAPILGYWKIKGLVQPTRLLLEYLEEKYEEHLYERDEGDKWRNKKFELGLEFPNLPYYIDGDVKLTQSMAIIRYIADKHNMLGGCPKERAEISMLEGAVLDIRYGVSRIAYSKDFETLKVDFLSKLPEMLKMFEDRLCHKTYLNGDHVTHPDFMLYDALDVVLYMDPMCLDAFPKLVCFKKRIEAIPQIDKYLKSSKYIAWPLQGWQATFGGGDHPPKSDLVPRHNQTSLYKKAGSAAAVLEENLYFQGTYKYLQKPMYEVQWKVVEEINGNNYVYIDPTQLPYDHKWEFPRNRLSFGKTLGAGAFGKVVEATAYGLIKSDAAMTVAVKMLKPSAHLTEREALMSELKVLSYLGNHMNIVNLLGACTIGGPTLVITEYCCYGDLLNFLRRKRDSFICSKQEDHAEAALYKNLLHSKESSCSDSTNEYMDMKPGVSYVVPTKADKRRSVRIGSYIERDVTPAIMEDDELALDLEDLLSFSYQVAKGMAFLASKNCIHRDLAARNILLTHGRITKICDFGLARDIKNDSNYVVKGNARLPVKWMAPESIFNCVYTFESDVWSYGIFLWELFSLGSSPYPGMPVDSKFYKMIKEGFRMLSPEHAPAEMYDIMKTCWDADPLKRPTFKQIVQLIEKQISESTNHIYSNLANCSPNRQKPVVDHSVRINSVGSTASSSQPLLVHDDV

[5] = molecular target: T2, c-KIT V654A kinase (Seq ID no. 2) (Homo sapiens, UniProt P10721, V654A); experiment: c-KIT V654A Kinase Assay; type: biochemical; settings: enzymatic assay, ATP 200 μM
T2 construct: V654A c-Kit (residues T544-V976 with N-terminal GST fusion, 47 nM); purchased deCODE Biostructures
T2 sequence (P10721 544-976 V654A): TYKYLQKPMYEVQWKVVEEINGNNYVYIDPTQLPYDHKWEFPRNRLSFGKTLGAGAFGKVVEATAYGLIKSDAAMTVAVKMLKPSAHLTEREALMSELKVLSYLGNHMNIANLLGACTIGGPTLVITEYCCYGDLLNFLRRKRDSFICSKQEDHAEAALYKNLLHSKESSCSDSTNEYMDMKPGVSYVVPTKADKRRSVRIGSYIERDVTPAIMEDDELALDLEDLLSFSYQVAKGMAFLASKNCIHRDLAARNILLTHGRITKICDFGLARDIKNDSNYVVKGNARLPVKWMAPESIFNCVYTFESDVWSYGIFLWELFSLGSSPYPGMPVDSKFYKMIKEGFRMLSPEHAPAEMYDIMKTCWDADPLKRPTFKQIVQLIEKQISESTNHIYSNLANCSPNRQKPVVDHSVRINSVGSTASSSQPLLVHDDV
Experimental: In this assay, the oxidation of NADH (measured by decrease in absorbance at 340 nm) was continuously monitored spectrophotometrically. […] The inhibition reaction was started by mixing serial diluted test compound with the above reaction mixture. The absorption at 340 nm was monitored continuously for 6 hours at 30° C. on Synergy 2 plate reader (BioTech).
The protein construct was prepared by deCODE Biostructures using procedures known in the art. The construct contains residues T544-V976 of cKit, an N-terminal tag, a GST-fusion sequence and a TEV cleavage site. This construct is identical to Seq ID no.

[6] = molecular target: T3, c-KIT D816H kinase (Seq ID no. 3) (Homo sapiens, UniProt P10721, D816H); experiment: c-KIT D816H Kinase Assay; type: biochemical; settings: enzymatic assay, ATP 200 μM
T3 construct: GST (N); TEV cleavage site (N); purchased deCODE Biostructures
T3 sequence (P10721 544-976 D816H): as the sequence (P10721 544-976 V654A) above, with A111V, D273H counted along it
Experimental: In this assay, the oxidation of NADH (measured by decrease in absorbance at 340 nm) was continuously monitored spectrophotometrically. […] The inhibition reaction was started by mixing serial diluted test compound with the above reaction mixture. The absorption at 340 nm was monitored continuously for 6 hours at 30° C. on Synergy 2 plate reader (BioTech). […] The protein construct was prepared by deCODE Biostructures using procedures known in the art. The construct contains […] of cKit, an N-terminal tag, a GST-fusion sequence and a TEV cleavage site. This construct is identical to Seq ID no. 1 except for the D816H mutation.

[7] = molecular target: T4, c-KIT D816V kinase (Seq ID no. 4) (Homo sapiens, UniProt P10721, D816V); experiment: c-KIT D816V kinase Assay; type: biochemical; settings: enzymatic assay, ATP 200 uM
T4 construct: D816V c-KIT (residues T544-V976 with N-terminal GST fusion, 16 nM); purchased deCODE Biostructures
T4 sequence (P10721 544-976 D816V): as the sequence (P10721 544-976 V654A) above, with A111V, D273V counted along it

[8] = molecular target: T5, c-KIT T670I kinase (Seq ID no. 6) (Homo sapiens, UniProt P10721, T670I); experiment: c-KIT T670I Kinase Assay; type: biochemical; settings: enzymatic assay, ATP 200 uM
T5 construct: GST (N); TEV cleavage site (N); purchased deCODE Biostructures
T5 sequence (P10721 544-976 T670I): as the sequence (P10721 544-976 V654A) above, with A111V, T127I counted along it

[9] = tested on: GIST T1 cells; experiment: GIST T1 Cell Proliferation Assay; type: cell-based; settings: Homo sapiens, GISTT1, 72 h, resazurin, 68 hours + 4 hours
Experimental: as §1
A serial dilution of test compound was dispensed into a 384-well black clear bottom plate (Corning, Corning, N.Y.). […] Plates were read on a Synergy2 reader (Biotek, Winooski, Vt.) using an excitation of 540 nm and an emission of 600 nm.

Sequence of Phospho-KIT (Tyr719) in GIST430 cells (P10721 with tags, fused parts or gaps DEL560-576/V654A, form open): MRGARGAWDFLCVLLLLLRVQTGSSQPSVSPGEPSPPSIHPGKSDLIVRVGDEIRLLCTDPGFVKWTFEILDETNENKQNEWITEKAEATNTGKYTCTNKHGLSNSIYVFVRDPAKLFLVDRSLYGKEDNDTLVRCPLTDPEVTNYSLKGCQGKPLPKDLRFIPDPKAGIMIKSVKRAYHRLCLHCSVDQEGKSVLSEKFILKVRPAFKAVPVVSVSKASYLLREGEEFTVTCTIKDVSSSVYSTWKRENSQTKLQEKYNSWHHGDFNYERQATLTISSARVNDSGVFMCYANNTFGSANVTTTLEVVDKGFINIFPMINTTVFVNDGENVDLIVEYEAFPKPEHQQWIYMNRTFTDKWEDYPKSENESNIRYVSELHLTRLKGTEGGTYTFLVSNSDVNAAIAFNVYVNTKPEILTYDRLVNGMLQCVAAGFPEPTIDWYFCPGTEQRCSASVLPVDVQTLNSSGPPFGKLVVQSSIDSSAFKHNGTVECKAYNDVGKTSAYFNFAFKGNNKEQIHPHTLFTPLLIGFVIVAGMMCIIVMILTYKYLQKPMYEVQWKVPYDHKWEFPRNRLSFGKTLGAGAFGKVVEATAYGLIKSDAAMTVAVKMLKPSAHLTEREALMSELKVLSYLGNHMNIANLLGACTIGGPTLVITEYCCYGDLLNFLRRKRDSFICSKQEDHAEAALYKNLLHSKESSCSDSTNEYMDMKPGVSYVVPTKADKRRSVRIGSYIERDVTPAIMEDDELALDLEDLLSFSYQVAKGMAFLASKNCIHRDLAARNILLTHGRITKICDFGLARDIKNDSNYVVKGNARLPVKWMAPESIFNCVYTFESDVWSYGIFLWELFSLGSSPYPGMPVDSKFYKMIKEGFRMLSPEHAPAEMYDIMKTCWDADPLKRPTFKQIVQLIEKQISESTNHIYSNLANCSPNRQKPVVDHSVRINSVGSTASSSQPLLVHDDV

Compound | IC50 [1] | IC50 [2] | IC50 [3] | IC50 [4] | IC50 [5] | IC50 [6] | IC50 [7] | IC50 [8] | IC50 [9]
CCn1c(=O)c(-c2cc(NC(=O)Nc3ccccc3F)c(F)cc2C)cc2cnc(NC)cc21 [Example 38, 1-(5-(1-ethyl-7-(methylamino)-2-oxo-1,2-dihydro-1,6-naphthyridin-3-yl)-2-fluoro-4-methylphenyl)-3-(2-fluorophenyl)urea] | 10 to 100 nM | > 1000 nM | 10 to 100 nM |  |  |  |  |  | 
CCn1c(=O)c(-c2cc(NC(=O)Nc3ccccc3)c(F)cc2Cl)cc2cnc(NCCCN3CCOCC3)cc21 [Example 92, 1-(4-chloro-5-(1-ethyl-7-((3-morpholinopropyl)amino)-2-oxo-1,2-dihydro-1,6-naphthyridin-3-yl)-2-fluorophenyl)-3-phenylurea] |  |  |  | < 10 nM | < 10 nM | 10 to 100 nM | 10 to 100 nM | 10 to 100 nM | ≤ 10 nM
